For this data set the following is noted: for aqueous solubility: pH 6.8.

≈ marks a conversion by molar mass, not a printed value.

`CC(C)c1noc2nc(C3CC3)cc(C(=O)N3CC[C@H](N)C3)c12`: the MDR1-MDCK efflux ratio was determined as 128; the intrinsic clearance, human liver microsomes is at most 4.74 mL/min/kg; the intrinsic clearance, rat liver microsomes is at most 10.7 mL/min/kg; the aqueous solubility (commonly the dissolved amount per volume that the medium holds) turned out to be 34.1 µg/mL (≈ 108 µM).

`O=C(CCC1CCOCC1)Nc1ccc(C(=O)O)cc1` had an intrinsic clearance, human liver microsomes of at most 4.74 mL/min/kg and an intrinsic clearance, rat liver microsomes of at most 10.7 mL/min/kg.

In the case of `O=C(NCc1cnn2cccnc12)c1ccccc1-n1cnnc1`, the MDR1-MDCK efflux ratio came to 4.87; the intrinsic clearance, human liver microsomes is at most 4.74 mL/min/kg; the intrinsic clearance, rat liver microsomes was at most 10.7 mL/min/kg.

As to `CONC(=O)c1c(C)nn(C)c1Cl`, the MDR1-MDCK efflux ratio was 0.868; the intrinsic clearance, human liver microsomes was at most 4.74 mL/min/kg; the intrinsic clearance, rat liver microsomes is at most 10.7 mL/min/kg.

`Cc1ccncc1NC(=O)Cc1ccc(F)cc1` displayed an intrinsic clearance, human liver microsomes of at most 4.74 mL/min/kg and an intrinsic clearance, rat liver microsomes of 20.4 mL/min/kg.

`CC(C)(Oc1ccc(-c2cnc(N)c(-c3ccc(Cl)cc3)c2)cc1)C(=O)O` displayed a fraction unbound, human plasma of 0.0007; a fraction unbound, rat plasma of 0.0004; an aqueous solubility of 45.4 µg/mL (≈ 119 µM).

For `Cc1oc(C)c(C(=O)N(C)Cc2ccccc2N2CCOCC2)c1C`, the MDR1-MDCK efflux ratio stood at 1.58; the intrinsic clearance, human liver microsomes was 916 mL/min/kg; the intrinsic clearance, rat liver microsomes was determined as 5800 mL/min/kg; the aqueous solubility stood at 61.8 µg/mL (≈ 180 µM).

`Cc1ccc(C(=O)N(C)Cc2ccccn2)c(O)c1` gave an intrinsic clearance, human liver microsomes of at most 4.74 mL/min/kg and an intrinsic clearance, rat liver microsomes of 479 mL/min/kg.

Consider `CNC(=O)C1(Cc2ccc(-c3cccnc3)cc2)CCN(Cc2ccccc2Cl)C1` (stereo not given), for which the MDR1-MDCK efflux ratio turned out to be 0.961; the fraction unbound, human plasma stood at 0.0244; the fraction unbound, rat plasma amounted to 0.0188; the intrinsic clearance, human liver microsomes was determined as 446 mL/min/kg. For the same compound, the intrinsic clearance, rat liver microsomes was found to be 559 mL/min/kg.

Turning to `O=C(CCCc1cc(Cl)sc1Cl)N1CCC(O)CC1`, the MDR1-MDCK efflux ratio came out at 0.857; the intrinsic clearance, human liver microsomes turned out to be 52.4 mL/min/kg; the intrinsic clearance, rat liver microsomes was 741 mL/min/kg; the aqueous solubility amounted to 30.1 µg/mL (≈ 93.4 µM).

Take `COc1cc2c(cc1OC)CN(C(=O)C1CCCN(C(C)=O)C1)CC2` (stereo not given): the MDR1-MDCK efflux ratio amounted to 57.1; the intrinsic clearance, human liver microsomes is at most 4.74 mL/min/kg; the intrinsic clearance, rat liver microsomes turned out to be 19.9 mL/min/kg; the aqueous solubility worked out at 55 µg/mL (≈ 159 µM).

Consider `COC(=O)[C@@H]1Cc2ncn(Cc3ccccc3)c2CN1C(C)=O`, for which the MDR1-MDCK efflux ratio came out at 17.6; the intrinsic clearance, human liver microsomes came out at 6.26 mL/min/kg; the intrinsic clearance, rat liver microsomes was determined as 97.3 mL/min/kg; the aqueous solubility turned out to be 32.2 µg/mL (≈ 103 µM).

Turning to `N#Cc1cc(-c2ccccc2)sc1N`, the aqueous solubility came out at 3 µg/mL (≈ 15 µM).

On to `CCN1CCC(CNC(=O)c2cc(C)nc3cc(F)ccc23)CC1`, for which the MDR1-MDCK efflux ratio worked out at 25.4; the intrinsic clearance, human liver microsomes is at most 4.74 mL/min/kg; the intrinsic clearance, rat liver microsomes is at most 10.7 mL/min/kg; the aqueous solubility is 37.2 µg/mL (≈ 113 µM).

Turning to `Cc1ccccc1Cn1c(=O)c2c(nc3n(-c4ccccc4O)c(C)cn23)n(C)c1=O`, the MDR1-MDCK efflux ratio was determined as 21.8 and the aqueous solubility came out at 0.91 µg/mL (≈ 2.19 µM).

`Cn1ccnc1CN(C(=O)c1[nH]c2ccccc2c1Cl)C1CC1`: the MDR1-MDCK efflux ratio came to 12.4; the intrinsic clearance, human liver microsomes turned out to be 90.5 mL/min/kg; the intrinsic clearance, rat liver microsomes was found to be 2250 mL/min/kg; the aqueous solubility amounted to 62.3 µg/mL (≈ 189 µM).

As for `CC(C)=CCOc1cccc(C(=O)NN2CCOCC2)c1`, the MDR1-MDCK efflux ratio came to 1.29; the intrinsic clearance, human liver microsomes is at most 4.74 mL/min/kg; the intrinsic clearance, rat liver microsomes was determined as 589 mL/min/kg.

For `CCc1noc(CN2CCCN(C(C)=O)c3ccccc32)n1`, the MDR1-MDCK efflux ratio turned out to be 1.25; the intrinsic clearance, human liver microsomes is 51 mL/min/kg; the intrinsic clearance, rat liver microsomes came out at 855 mL/min/kg; the aqueous solubility was determined as 55.4 µg/mL (≈ 185 µM).

`CN(C)S(=O)(=O)CCCN1CCC(CCC(N)=O)CC1`: the MDR1-MDCK efflux ratio was determined as 0.425; the intrinsic clearance, human liver microsomes was at most 4.74 mL/min/kg; the intrinsic clearance, rat liver microsomes was at most 10.7 mL/min/kg.

As to `Cc1cccnc1NC(=O)Cc1coc2c(C)c(C)ccc12`, the MDR1-MDCK efflux ratio worked out at 0.636; the intrinsic clearance, human liver microsomes came out at 124 mL/min/kg; the intrinsic clearance, rat liver microsomes amounted to 4310 mL/min/kg; the aqueous solubility amounted to 74.7 µg/mL (≈ 254 µM).

`CC(C)(C)NC(=O)Cn1nc(C(c2ccccc2)c2ccccc2)oc1=O`: the MDR1-MDCK efflux ratio is 4.07; the intrinsic clearance, human liver microsomes worked out at 22.4 mL/min/kg; the intrinsic clearance, rat liver microsomes came to 747 mL/min/kg; the aqueous solubility was found to be 6.02 µg/mL (≈ 16.5 µM).

For the compound `Cn1cc(NC(=O)[C@@H]2CCCCN2C(=O)OC(C)(C)C)cn1`, the MDR1-MDCK efflux ratio was determined as 4.1; the intrinsic clearance, human liver microsomes was at most 4.74 mL/min/kg; the intrinsic clearance, rat liver microsomes came out at 28.2 mL/min/kg; the aqueous solubility stood at 67.2 µg/mL (≈ 218 µM).

As for `c1cnc(N2CCC(Cc3ccncc3)CC2)nc1`, the MDR1-MDCK efflux ratio is 0.575; the intrinsic clearance, human liver microsomes was 10.9 mL/min/kg; the intrinsic clearance, rat liver microsomes turned out to be 146 mL/min/kg; the aqueous solubility was 58.1 µg/mL (≈ 228 µM).

In the case of `CN(C)c1ccc(-c2ccc(COCc3cccs3)cc2)nn1`, the MDR1-MDCK efflux ratio was 0.483; the intrinsic clearance, human liver microsomes was found to be 76.5 mL/min/kg; the intrinsic clearance, rat liver microsomes was 410 mL/min/kg; the aqueous solubility was found to be 1.35 µg/mL (≈ 4.15 µM).

With `CCCn1cc(C(=O)N2CCC(c3n[nH]cc3C(=O)N(C)Cc3ccccc3)CC2)cn1`, the MDR1-MDCK efflux ratio was found to be 9.45; the intrinsic clearance, human liver microsomes stood at 129 mL/min/kg; the intrinsic clearance, rat liver microsomes turned out to be 561 mL/min/kg; the aqueous solubility came out at 45.3 µg/mL (≈ 104 µM).

In turn, `c1cnn(-c2ccc(-c3ccc(NC4CC4)nn3)cc2)c1` had an aqueous solubility of 0.78 µg/mL (≈ 2.81 µM).

`Cc1cccc(-c2nc(C34CCC(C(N)=O)(CC3)CC4)[nH]c2-c2ccc3c(c2)OCO3)n1` came in with a fraction unbound, human plasma of 0.105 and a fraction unbound, rat plasma of 0.0162.

In the case of `Cc1cc(C)c2c(c1)CCCN2C(=O)c1ccc(-c2nnc(C)o2)cc1`, the MDR1-MDCK efflux ratio stood at 0.685; the intrinsic clearance, human liver microsomes worked out at 149 mL/min/kg; the intrinsic clearance, rat liver microsomes was determined as 2090 mL/min/kg; the aqueous solubility is 52.2 µg/mL (≈ 150 µM).

`O=c1sn(-c2cccc3ccccc23)c(=O)n1Cc1ccccc1`: the aqueous solubility turned out to be 0.4 µg/mL (≈ 1.2 µM).

For `CCOc1ccccc1CNCCc1c[nH]c2ccccc12`, the MDR1-MDCK efflux ratio was 3.34; the intrinsic clearance, human liver microsomes amounted to 127 mL/min/kg; the intrinsic clearance, rat liver microsomes worked out at 2170 mL/min/kg; the aqueous solubility worked out at 39.6 µg/mL (≈ 135 µM).

As to `Cc1cc(C)nc(N(C)CC(=O)NC2CC2)n1`, the MDR1-MDCK efflux ratio is 0.884; the intrinsic clearance, human liver microsomes is at most 4.74 mL/min/kg; the intrinsic clearance, rat liver microsomes is 23.1 mL/min/kg; the aqueous solubility was 34.9 µg/mL (≈ 149 µM).

Turning to `O=C(Nc1nc2cccc(-c3ccc(CN4CCS(=O)(=O)CC4)cc3)n2n1)C1CC1`, the MDR1-MDCK efflux ratio worked out at 136; the fraction unbound, human plasma was determined as 0.48; the fraction unbound, rat plasma came to 0.4; the intrinsic clearance, human liver microsomes is at most 4.74 mL/min/kg. The compound further had an intrinsic clearance, rat liver microsomes of 19.4 mL/min/kg and an aqueous solubility of 47.1 µg/mL (≈ 111 µM).

Turning to `NC(=O)COc1ccccc1C(=O)Nc1cccc(-c2ccc3ccccc3c2)n1`, the MDR1-MDCK efflux ratio is 0.296; the intrinsic clearance, human liver microsomes was found to be 54.8 mL/min/kg; the intrinsic clearance, rat liver microsomes worked out at 1060 mL/min/kg.

Turning to `COCCNc1c(C)c(C)nc2cc(-c3nccn3C)nn12`, the MDR1-MDCK efflux ratio was found to be 1.53; the intrinsic clearance, human liver microsomes was found to be 21.1 mL/min/kg; the intrinsic clearance, rat liver microsomes was found to be 79.6 mL/min/kg.

The compound `O=C(Nc1cccc2c(=O)cc(-c3nnn[nH]3)oc12)c1ccc(OCCCCc2ccccc2)cc1` registered a fraction unbound, human plasma of 0.0383; a fraction unbound, rat plasma of 0.0592; an intrinsic clearance, human liver microsomes of 21.1 mL/min/kg.

In the case of `CC(=O)c1ccc2c(c1)CCN(CCC1OCCO1)CC2`, the MDR1-MDCK efflux ratio stood at 0.527; the intrinsic clearance, human liver microsomes was 8.3 mL/min/kg; the intrinsic clearance, rat liver microsomes amounted to 56.2 mL/min/kg.

Take `O=C(NCc1ncc(-c2ccccc2)o1)C1CCCCC1`: the MDR1-MDCK efflux ratio was 0.57; the intrinsic clearance, human liver microsomes turned out to be 41.9 mL/min/kg; the intrinsic clearance, rat liver microsomes is 668 mL/min/kg; the aqueous solubility amounted to 75.9 µg/mL (≈ 267 µM).

In turn, `CNc1ccc(/C=C/C=C/c2nc3ccc(O)cc3s2)cn1` returned an aqueous solubility of 0.22 µg/mL (≈ 0.711 µM).

The compound `O=c1n(Cc2ccncc2)nc2n1-c1cc(Cl)ccc1C1=NCCN12` had an intrinsic clearance, human liver microsomes of 20 mL/min/kg and an intrinsic clearance, rat liver microsomes of 143 mL/min/kg.

Consider `N#CC1(NC(=O)c2ccc3c(c2)OCO3)CCCC1`, for which the intrinsic clearance, human liver microsomes was at most 4.74 mL/min/kg and the intrinsic clearance, rat liver microsomes worked out at 64.9 mL/min/kg.

In the case of `COc1ccc(-c2nnc3nn(C)c(=O)n3c2-c2ccc(OC)cc2)cc1`, the MDR1-MDCK efflux ratio came out at 0.904 and the aqueous solubility was determined as 0.25 µg/mL (≈ 0.688 µM).

Consider `CCS(=O)(=O)N(C)c1ccc(N(C)C)cc1`, for which the MDR1-MDCK efflux ratio is 0.579; the intrinsic clearance, human liver microsomes is at most 4.74 mL/min/kg; the intrinsic clearance, rat liver microsomes is 2980 mL/min/kg.

In the case of `COCc1nc(C2CCN(CCO)CC2)no1`, the intrinsic clearance, human liver microsomes was at most 4.74 mL/min/kg; the intrinsic clearance, rat liver microsomes amounted to 72.4 mL/min/kg; the aqueous solubility was 36.1 µg/mL (≈ 150 µM).

With `CNC(=O)c1ccc(-c2nnc(-c3cccc(C)c3)o2)cc1`, the aqueous solubility was determined as 0.21 µg/mL (≈ 0.716 µM).

On to `Cc1ccc(F)c(-c2noc(N)c2C)c1`, for which the MDR1-MDCK efflux ratio turned out to be 0.523; the intrinsic clearance, human liver microsomes is 19.6 mL/min/kg; the intrinsic clearance, rat liver microsomes is 293 mL/min/kg.

Regarding `COc1ccc(-c2nn3c(-c4ccco4)nnc3c3ccccc23)cc1`, the MDR1-MDCK efflux ratio is 0.526 and the aqueous solubility was 0.18 µg/mL (≈ 0.526 µM).

In the case of `CCCc1ncncc1C(=O)NCc1nncn1CCC`, the MDR1-MDCK efflux ratio amounted to 14.7; the intrinsic clearance, human liver microsomes was at most 4.74 mL/min/kg; the intrinsic clearance, rat liver microsomes came to 38.8 mL/min/kg.

Take `Cc1cc(C)n2ncc(C(=O)N[C@H]3CC[C@@H](C(C)C)CC3)c2n1`: the MDR1-MDCK efflux ratio worked out at 0.775.

Consider `COc1ccc(CCC(=O)N2CCN(C(=O)c3cc4n(n3)CCCC4)CC2)cc1`, for which the MDR1-MDCK efflux ratio came to 5.94; the intrinsic clearance, human liver microsomes is 16.3 mL/min/kg; the intrinsic clearance, rat liver microsomes worked out at 867 mL/min/kg; the aqueous solubility was found to be 83.4 µg/mL (≈ 210 µM).

The values are drawn from the Biogen ADME set (Fang et al. 2023).
